Laboratory results reported in US6335159B1 (The Burnham Institute, priority 1988, dated 2002).

Legend:
Assay type in all cases: cell-based
[1] = system: endogenous F9 cell RAR; assay: CAT assay: reporter plasmid only transfected into F9 cells (endogenous RAR); conditions: for induction of CAT activity: G17-2 construct alone
Text: Two different TREs, one the natural myosin heavy chain (MHC) promoter TRE, Izumo, S., et al., Nature, 334, 539 (1988), and the other a synthetic TRE—G17-2—derived from the rat growth hormone promoter, Glass, C. K., et al., Cell, 54, 313-323 (1988), were chosen, both references are incorporated herein by reference. The estrogen responsive element (ERE) used here is derived from the vitellogenin gene, Klein-Hitpass, L., et al., Cell 46, 1053-1061 (1986). As a convenient assay system a cotransfection CAT assay (chloramphenicol transacetylase) was chosen. When. […] Upon induction, MHC and G17-2-TRE constructs yield very similar levels of CAT activity. However, the MHC-TRE-CAT gene is highly constitutive (high basal level activity) whereas the G17-2 construct functions as an ideal RA inducible gene in that we observe a low basal activity and a more than 30 fold induction of CAT activity by RA (FIG. 6a and b). Similar levels of induction were obtained with TRα. F9 cells have been established as a cellular model for RA dependent differentiation and to contain RAR transcripts. Whether the endogenous F9 RAR can also activate the TRE-CAT genes, by transfecting the […] into F9 cells alone was investigated. […] The high basal level observed with the MHC construct prevents observation of a clear induction effect by the endogenous RAR. […]
F9 cells were cotransfected with 5 μg of the expression vectors PECE-RARε or PECE-TRα and 20 μg of the reporter plasmids G17-2 CAT or MHC-CAT. […] Fold activation is expressed as the ratio of relative CAT activity after hormone induction to relative CAT activity without hormone induction. […]
2×10^6 F9 cells were cultured as monolayer on gelatin-coated dishes in alpha-MEM (GIBCO, Santa Clara, Calif.), supplemented by 20% fetal calf serum (FCS), glutamine: and nucleosides as described in Grover, A., et al., J. Cell Biol. 96, […] (1983) which is incorporated herein by reference. […] For accurate determinations of chloramphenicol acetylation, the separated reaction products were cut out from silica plates and quantified in a scintillation counter. […]

[2] = system: TR and RAR (RARε plus TRα or TRβ); assay: Cotransfection CAT assay: TR and RARε together with TRE-CAT gene (G17-2 CAT) in F9 and CV-1 cells; conditions: only T3 added, TR and RAR cotransfected
Method: One possible implication of this finding is that certain genes should be inducible by either hormone (T3) or vitamin (RA) in cells containing both receptors. To zest this hypothesis and to investigate possible positive and/or negative interactions of TR and RAR, both receptors were cotransfected into the same cells together with a TRE-CAT gene. […] Approximately 70% of the maximal activity is observed when only T3 is added. […] In the absence of T3, TR prevents activation of TREs by RARs, while in the presence of T3, TR activates and also allows positive cooperativity with RAR. The dominating regulatory effect can be carried out by both TRα and TRβ on both the RARε (FIG. 9) and the F9 endogenous RAR. Significant repression of RARε activity in F9 cells is observed between RARε: TRα ratios of 1:1 to 4:1.
As shown in FIG. 9(a), 5 μg of PECE-RARε plus 5 μg of PECE-TRα were cotransfected together with 20 μg of G17-2 CAT into F9 cells. As a control, each receptor was also cotransfected with G17-2 CAT individually. Hormones were added as indicated. As shown in FIG. 9(b), 2.5 μg of PECE-TRβ plus 2.5 μg of PECE-RARε were cotransfected with 20 μg of G17-2 CAT into CV-1 cells. As a control, PECE-RARε was also cotransfected with G17-2 individually. Hormones were added as indicated. CAT activity was assayed as described in Example VI.

[3] = target: T1, RAER chimaeric protein (RARε with hER DNA-binding domain) (Homo sapiens, UniProt P10826, DEL77-136/INS76TNDKGSMAMESAKETRYCAVCNDYASGYHYGVWSCEGCKAFFKRSIQGHNDYMCPATNQCTIDKNRRKSCQAC); assay: Co-transfection CAT assay: RAER chimaeric receptor plus ERE-CAT reporter gene in HeLa cells; conditions: only at high concentrations (3×10^−6 M)
T1 construct: a 304 bp 5′ untranslated region, the complete open reading frame, and a 55 bp 3′ untranslated region; expressed in transfected cells; host or cells: HeLa cells, PECE-RAER expression vector
T1 sequence (P10826 with tags, fused parts or gaps isoform P10826-2): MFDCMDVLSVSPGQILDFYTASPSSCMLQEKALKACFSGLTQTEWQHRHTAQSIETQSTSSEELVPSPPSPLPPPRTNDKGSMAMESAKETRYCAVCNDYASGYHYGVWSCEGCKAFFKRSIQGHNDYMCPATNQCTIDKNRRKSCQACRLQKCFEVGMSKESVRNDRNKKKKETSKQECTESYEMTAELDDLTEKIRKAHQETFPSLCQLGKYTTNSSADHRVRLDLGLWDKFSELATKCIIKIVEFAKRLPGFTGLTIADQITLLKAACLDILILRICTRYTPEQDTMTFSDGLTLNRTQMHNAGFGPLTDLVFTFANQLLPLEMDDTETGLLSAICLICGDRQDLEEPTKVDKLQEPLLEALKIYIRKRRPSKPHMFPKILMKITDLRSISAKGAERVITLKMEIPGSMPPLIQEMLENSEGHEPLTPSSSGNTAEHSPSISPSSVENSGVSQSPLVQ
Method: The hybrid receptor was then transfected into susceptible tissue-culture cells together with a reporter gene containing the relevant HRE. The effect of various potential activators of the novel receptor was measured from cells transiently transfected with both genes and grown in the presence and absence of the various ligands.
As a control, cells were treated with calcium phosphate or were transfected with the constitutive pSV2CAT vector. As further controls, cells were also transfected with ERE-CAT and ERE-CAT plus the oestrogen receptor (ER) expression vector pckR2ER and grown in the presence of Est.
After 5 hours, cells were shocked with 10% glycerol for 2 min. Eighteen hours after the start of transfection, steroid hormones or retinoids were added to the medium and cells were incubated for a further 24 hours before harvesting.

In the case of `N[C@@H](Cc1cc(I)c(Oc2ccc(O)c(I)c2)c(I)c1)C(=O)O` [T3], the “induction of CAT activity” value ([1]; F9 cells, in the presence of T3) is reported as “no induction” and the “CAT activity, percent of the maximal activity” value [2] is reported as “Approximately 70%”.

With `CC1=C(/C=C/C(C)=C/C=C/C(C)=C/C(=O)O)C(C)(C)CCC1` [retinoic acid] the “induction of CAT activity” value ([1]; endogenous F9 RAR, in the presence of RA) was 12 fold and the “RA concentration at which TRE dependent CAT activity can be induced” value ([1]; G17-2 construct, F9 RAR, RA tested between 3×10^−11 and 10^−6 M) was about 0.1 nM.

For `CC1=C(/C=C/C(C)=C/C=C/C(C)=C/CO)C(C)(C)CCC1` [retinol], the “induction of CAT gene expression” value [3] was “some inducing effect”.

With `CC1=C(/C=C/C(C)=C/C=C/C(C)=C/C=O)C(C)(C)CCC1` [retinal] the “induction of CAT gene expression” value [3] was “some inducing effect”.
